We go through five compounds from US20190185518A9, “WARHEAD-CONTAINING PEPTIDOMIMETIC MACROCYCLES AS MODULATORS OF BFL-1” (AILERON Therapeutics, Inc., priority 2017, published 2019).

In this experiment the target is Mcl-1 (Homo sapiens, UniProt Q07820). Description: Ki determination for Mcl-1 (BCL-2 family binding spectrum). To be noted: read-out: Ki MCL-1. From the text: To assess the binding and affinity of compounds that antagonize the interaction between a peptide and an acceptor protein, a fluorescence polarization assay (FPA) utilizing a fluoresceinated peptidomimetic macrocycle derived from a peptidomimetic precursor sequence is used, for example. The FPA technique measures the molecular orientation and mobility using polarized light and fluorescent tracer. […] A compound that antagonizes the interaction between the fluoresceinated peptidomimetic macrocycle and an acceptor protein will be detected in a competitive binding FPA experiment.
Mcl-1, sequence (Q07820 whole entry, species assumed): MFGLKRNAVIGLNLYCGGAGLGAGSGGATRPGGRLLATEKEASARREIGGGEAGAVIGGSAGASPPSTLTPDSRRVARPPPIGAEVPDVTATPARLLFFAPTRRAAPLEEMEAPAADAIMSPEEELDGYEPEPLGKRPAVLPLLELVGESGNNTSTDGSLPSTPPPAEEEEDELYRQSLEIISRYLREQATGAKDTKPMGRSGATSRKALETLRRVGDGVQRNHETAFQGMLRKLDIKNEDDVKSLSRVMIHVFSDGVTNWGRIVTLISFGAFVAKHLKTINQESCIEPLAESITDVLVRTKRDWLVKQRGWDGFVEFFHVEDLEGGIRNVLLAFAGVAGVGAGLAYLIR
Antagonist binding activity is measured, for example, by fluorescence polarization on a luminescence spectrophotometer (e.g. Perkin-Elmer LS50B). Kd values may be determined by nonlinear regression analysis using, for example, Graphpad Prism software (GraphPad Software, Inc., San Diego, Calif.).

Each structure is given as a SMILES string. pKi: −log10 of the molar value. Positions of bridges follow the written chain, without caps; N, C: chain ends. Non-standard residues stand in square brackets, D forms with d. Residues, ends and D or L forms follow the SMILES beside them. 2Nal = N[C@@H](Cc1ccc2ccccc2c1)C(=O)O; R8 = C=CCCCCCC[C@@](C)(N)C(=O)O; S5 = C=CCCC[C@](C)(N)C(=O)O

As for `CC[C@H](C)[C@H](NC(C)=O)C(=O)N[C@@H](Cc1c[nH]c2ccccc12)C(=O)N[C@H](C(=O)N[C@@H](C)C(=O)N[C@@H](C)C(=O)N[C@@H](C)C(=O)N[C@@H](CC(C)C)C(=O)N[C@@H](CCCNC(=N)N)C(=O)N[C@]1(C)CCCCCCC=CCCC[C@@](C)(C(=O)N[C@@H](Cc2ccc(O)cc2)C(=O)N[C@@H](Cc2ccc(O)cc2)C(=O)N[C@@H](C)C(N)=O)NC(=O)[C@H](CO)NC(=O)[C@H](Cc2ccccc2)NC(=O)[C@H](C)NC(=O)[C@H](CC(=O)O)NC(=O)CNC(=O)[C@H]([C@@H](C)CC)NC1=O)[C@@H](C)CC` [compound 1751] (Ac-IWIAAALR[R8]IGDAFS[S5]YYA-NH2; staple 9-16), the pKi is 8.10.

Turning to `CC[C@H](C)[C@H](NC(C)=O)C(=O)N[C@@H](Cc1c[nH]c2ccccc12)C(=O)N[C@H](C(=O)N[C@@H](C)C(=O)N[C@@H](CCC(N)=O)C(=O)N[C@@H](C)C(=O)N[C@@H](CC(C)C)C(=O)N[C@@H](CCCNC(=N)N)C(=O)N[C@]1(C)CCCCCCC=CCCC[C@@](C)(C(=O)N[C@@H](Cc2ccc(O)cc2)C(=O)N[C@@H](Cc2ccc3ccccc3c2)C(=O)N[C@@H](C)C(N)=O)NC(=O)[C@H](CC(N)=O)NC(=O)[C@H](Cc2ccccc2)NC(=O)[C@H](C)NC(=O)[C@H](CC(=O)O)NC(=O)CNC(=O)[C@H]([C@@H](C)CC)NC1=O)[C@@H](C)CC` [compound 1759] (Ac-IWIAQALR[R8]IGDAFN[S5]Y[2Nal]A-NH2; staple 9-16), the pKi is 8.10.

In the case of `CC[C@H](C)[C@H](NC(C)=O)C(=O)N[C@@H](Cc1c[nH]c2ccccc12)C(=O)N[C@H](C(=O)N[C@@H](C)C(=O)N[C@@H](C)C(=O)N[C@@H](C)C(=O)N[C@@H](CC(C)C)C(=O)N[C@@H](CCCNC(=N)N)C(=O)N[C@]1(C)CCCCCCC=CCCC[C@@](C)(C(=O)N[C@@H](Cc2ccc(O)cc2)C(=O)N[C@@H](Cc2ccc(O)cc2)C(=O)N[C@@H](CC(=O)O)C(N)=O)NC(=O)[C@H](CC(N)=O)NC(=O)[C@H](Cc2ccccc2)NC(=O)[C@H](C)NC(=O)[C@H](CC(=O)O)NC(=O)CNC(=O)[C@H]([C@@H](C)CC)NC1=O)[C@@H](C)CC` [compound 1760] (Ac-IWIAAALR[R8]IGDAFN[S5]YYD-NH2; staple 9-16), the pKi is 8.66. The same measure for `CC[C@H](C)[C@H](NC(C)=O)C(=O)N[C@@H](Cc1c[nH]c2ccccc12)C(=O)N[C@H](C(=O)N[C@@H](C)C(=O)N[C@@H](C)C(=O)N[C@@H](C)C(=O)N[C@@H](CC(C)C)C(=O)N[C@@H](CCCNC(=N)N)C(=O)N[C@]1(C)CCCCCCC=CCCC[C@@](C)(C(=O)N[C@@H](Cc2ccc(O)cc2)C(=O)N[C@@H](Cc2ccc(O)cc2)C(=O)N[C@@H](CCC(=O)O)C(N)=O)NC(=O)[C@H](CC(N)=O)NC(=O)[C@H](Cc2ccccc2)NC(=O)[C@H](C)NC(=O)[C@H](CC(=O)O)NC(=O)CNC(=O)[C@H]([C@@H](C)CC)NC1=O)[C@@H](C)CC` [compound 1761] (Ac-IWIAAALR[R8]IGDAFN[S5]YYE-NH2; staple 9-16): 8.85; for `CC[C@H](C)[C@H](NC(C)=O)C(=O)N[C@@H](Cc1c[nH]c2ccccc12)C(=O)N[C@H](C(=O)N[C@@H](C)C(=O)N[C@@H](C)C(=O)N[C@@H](C)C(=O)N[C@@H](CC(C)C)C(=O)N[C@@H](CCCNC(=N)N)C(=O)N[C@]1(C)CCCCCCC=CCCC[C@@](C)(C(=O)N[C@@H](Cc2ccc(O)cc2)C(=O)N[C@@H](Cc2ccc(O)cc2)C(=O)N[C@@H](CCC(N)=O)C(N)=O)NC(=O)[C@H](CC(N)=O)NC(=O)[C@H](Cc2ccccc2)NC(=O)[C@H](C)NC(=O)[C@H](CC(=O)O)NC(=O)CNC(=O)[C@H]([C@@H](C)CC)NC1=O)[C@@H](C)CC` [compound 1762] (Ac-IWIAAALR[R8]IGDAFN[S5]YYQ-NH2; staple 9-16): 8.34.

One may read the pKi as the negative decadic logarithm of the Ki, by convention in mol/L.
